Assay results as given in patent US7071206B2, “Agents for treating neurodegenerative disorders” (Medivation, Inc., priority 1995, dated 2006).

System: patients suffering from Alzheimer's disease
Test: Clinical trial of dimebon tablets, inventors' scale (E. E. Bukatina et al.; 0 = absence of a symptom, 4 = greatest manifestation)
Assay type: in vivo, human
Conditions: for mean value of delirium manifestations: 10 patients with delirious symptoms prior to treatment; for mean value of depressive manifestations: 12 patients with depressive manifestations
Experimental: The test was carried out under the direct supervision by two of the inventors, namely E. E. Bukatina and V. Grigorieva, in 14 patients who agreed to take part in the tests, 13 of whom lived in a boarding house for senile persons and one patient lived with their family.
Alzheimer's disease was diagnosed on the basis of criteria ICD-10 NINCDS ADRDA.
Dimebon in the form of tablets (comprising 10 mg of dimebon, 30 mg of lactose, 5 mg of magnesium stearate was prescribed for oral administration in a dose of 0.02 g three to times a day. The patients living in the boarding house received dimebon for 58 days. A patient (observation 14) who was under outpatient observation continued taking the agent for a month after the completion of the tests.
Before the treatment with dimebon, and at 4 and 8 weeks after treatment the patients were examined according to Hazegawa's scale and the inventors' scale (“Social and Clinical Psychiatry”, 1992, No.4, pp.29–37) which includes the following indexes: (1) orientation in locality, time, immediate surroundings and one's own personality; (2) orientation in space; (3) memory for the past; (4) memory for the present; (5) “life in the past”; (6) (a) articulation, (b) difficulty in finding words, and distortion of words; (c) naming of objects; (d) following instructions; (7) concentration (of attention); (8) an affective sphere; (a) high spirits, (b) low spirits; (9) delirium; (10) hearing hallucinations; (11) visual hallucinations; (12) senile or senile-like confusion (when motion anxiety is accompanied by the revival of the past experience); (13) irritability; (14) anxiety; (15) asthenia; (16) headaches; (17) dizziness; (18) tearfulness; (19) spontaneous activity; (20) elementary self-service; and (21 control of sphincters.
According to the Hazegawa's scale, the 0 score indicates the poorest result; on the contrary, according to the inventors' scale, the 0 score indicates the absence of a symptom 4 score indicates the greatest manifestation thereof. […] Before the therapy was started, the patients had been independently examined by two doctors who used the inventors' scale. The examination during the treatment was carried out by the doctors using both the scales. The evaluation according to all the inventors' scale points during all the tests and their variations during the treatment with dimebon are given in the Appendix.
According to the inventors' scale, the degree of the disturbance if the cognitive functions was determined by a sum of evaluations according to the first 5 scale points reflecting the condition of memory, orientation and relation with the reality. The disturbance of speech was dealt with separately and was determined by a sum of evaluations according to items 6b-6d.
Both absolute evaluations of the signs under investigation (the evaluation prior to treatment is a mean evaluation of the two examinations) and variations in them were analysed in the course of therapy. In doing so, only those changes that were beyond the range of evaluations obtained in two pre-treatment examinations were taken into consideration.
The test results reflected the condition of the patients at the time of the examination. Any changes in the metal state observed in the interval between the tests and disappearing by the moment of examination according to the scale were described in the section “Clinical Observations”.
The statistical data processing was carried out by means of Student's t-test and Fisher's “Fi” criterion.

[1] = after 4 weeks vs two examinations prior to treatment, + improvement, − deterioration
[2] = after 4 weeks, mean of 14 patients

SMILES: Cc1ccc2c(c1)c1c(n2CCc2ccc(C)nc2)CCN(C)C1 [No. 10, 2,8-dimethyl-5-[2-(6-methyl-3-pyridyl)ethyl]-2,3,4,5-tetrahydro-1H-pyrido[4,3-b]indole]
- Cognitive functions (first 5 scale points): no variations, % (4 weeks): 81.4%
- Cognitive functions (first 5 scale points): no variations, abs. (4 weeks): 57
- Cognitive functions: X (no variations in the function prior to and during the treatment), % (4 weeks): 7.1%
- Cognitive functions: X (no variations in the function prior to and during the treatment), abs. (4 weeks): 5
- Speech functions (items 6b, c, d): no variations, % (4 weeks): 54.8%
- Speech functions (items 6b, c, d): no variations, abs. (4 weeks): 23
- Speech functions: X (no variations in the function prior to and during the treatment), % (4 weeks): 33.3%
- Speech functions: X (no variations in the function prior to and during the treatment), abs. (4 weeks): 14
- Cognitive functions (first 5 scale points): no variations, % (8 weeks): 53.6%
- Cognitive functions (first 5 scale points): no variations, abs. (8 weeks): 41
- Cognitive functions: X (no variations in the function prior to and during the treatment), % (8 weeks): 7.1%
- Cognitive functions: X (no variations in the function prior to and during the treatment), abs. (8 weeks): 5
- Speech functions (items 6b, c, d): no variations, % (8 weeks): 45.2%
- Speech functions (items 6b, c, d): no variations, abs. (8 weeks): 19
- Speech functions: X (no variations in the function prior to and during the treatment), % (8 weeks): 30.95%
- Speech functions: X (no variations in the function prior to and during the treatment), abs. (8 weeks): 13
- mean value of delirium manifestations (4 weeks): 0.8±0.33
- mean value of delirium manifestations (8 weeks): 0.7±0.27
- mean value of depressive manifestations (after 4 weeks): 0.58±0.18 score
- mean value of depressive manifestations (after 8 weeks): 0.58±0.14 score
- cognitive functions (Hazegawa's scale and inventor's scale), conclusion (14 patients, especially patients with mild dementia): significant improvement in cognitive functions
- mean score of tearfulness (after 4 weeks): 0.2±0.18
- Item 1 (orientation in locality, time, immediate surroundings and one's own personality): change during the course of the therapy [1]: +0.11 +/− 0.07 scores
- Item 2 (orientation in space): change during the course of the therapy [1]: +0.11 +/− 0.07 scores
- Item 3 (memory for the past): change during the course of the therapy [1]: +0.07 +/− 0.07 scores
- Item 4 (memory for the present): change during the course of the therapy [1]: 0 +/− 0 scores
- Item 5 (life in the past): change during the course of the therapy [1]: +0.14 +/− 0.08 scores
- Item 6a (speech): change during the course of the therapy [1]: +0.11 +/− 0.07 scores
- Item 6b (difficulty in finding words, and distortion of words): change during the course of the therapy [1]: 0 +/− 0 scores
- Item 6g (speech): change during the course of the therapy [1]: −0.07 +/− 0.12 scores
- Item 7 (concentration of attention): change during the course of the therapy [1]: 0 +/− 0.5 scores
- Item 8b (low spirits): change during the course of the therapy [1]: +0.41 +/− 0.17 scores
- Item 9 (delirium): change during the course of the therapy [1]: +0.07 +/− 0.09 scores
- Item 13 (irritability): change during the course of the therapy [1]: +0.29 +/− 0.13 scores
- Item 14 (anxiety): change during the course of the therapy [1]: −0.04 +/− 0.13 scores
- Item 15 (asthenia): change during the course of the therapy [1]: −0.11 +/− 0.09 scores
- Item 16 (headaches): change during the course of the therapy [1]: +0.54 +/− 0.21 scores
- Item 17 (dizziness): change during the course of the therapy [1]: −0.14 +/− 0.17 scores
- Item 18 (tearfulness): change during the course of the therapy [1]: −0.14 +/− 0.14 scores
- Item 19 (spontaneous activity): change during the course of the therapy [1]: 0 +/− 0 scores
- Item 20 (elementary self-service): change during the course of the therapy [1]: +0.07 +/− 0.07 scores
- Item 1 (orientation in locality, time, immediate surroundings and one's own personality): mean value [2]: 1.75 +/− 0.23 scores
- Item 2 (orientation in space): mean value [2]: 0.32 +/− 0.15 scores
- Item 3 (memory for the past): mean value [2]: 2.29 +/− 0.21 scores
- Item 4 (memory for the present): mean value [2]: 2.21 +/− 0.22 scores
- Item 5 (life in the past): mean value [2]: 1.75 +/− 0.27 scores
- Item 6a (speech): mean value [2]: 0.71 +/− 0.21 scores
- Item 6b (difficulty in finding words, and distortion of words): mean value [2]: 0.43 +/− 0.17 scores
- Item 6g (speech): mean value [2]: 0.46 +/− 0.16 scores
- Item 7 (concentration of attention): mean value [2]: 1.75 +/− 0.26 scores
- Item 8b (low spirits): mean value [2]: 0.5 +/− 0.16 scores
- Item 9 (delirium): mean value [2]: 0.57 +/− 0.29 scores
- Item 13 (irritability): mean value [2]: 0.21 +/− 0.15 scores
- Item 14 (anxiety): mean value [2]: 0.29 +/− 0.12 scores
- Item 15 (asthenia): mean value [2]: 0.18 +/− 0.1 scores
- Item 16 (headaches): mean value [2]: 0.32 +/− 0.21 scores
- Item 17 (dizziness): mean value [2]: 0.71 +/− 0.27 scores
- Item 18 (tearfulness): mean value [2]: 0.07 +/− 0.07 scores
- Item 19 (spontaneous activity): mean value [2]: 1.29 +/− 0.22 scores
